Patent publication US10759798B2, “ABT-199 addition salt and crystal form thereof, preparation method thereof, and pharmaceutical composition thereof” (Hangzhou SoliPharma Co., Ltd, priority 2016, dated 2020)
Entries after “also recorded” stand apart in the source; their conditions may differ. Structures can show the parent of a compound that is named as a salt.

Legend:
[1] = Storage stability at room temperature and 10%-90% RH for 4 months; format: physicochemical; details: room temperature
[2] = Water solubility test (Comparative Example 1); format: physicochemical
Description: The ABT-199 monohydrochloride Form A prepared in the present invention was compared with the known ABT-199 hydrochloride Form II prepared according to the Preparation Example 2 in a water solubility test. In specific, 10 mg sample was placed in a 50 mL glass bottle, and added with 10 mL deionized water dropwisely at 25° C. to form a suspension. The suspension was treated with ultrasonics until the suspension was stirred for 24 hours and the sample was almost dissolved, the resultant solution was filtered and subject to HPLC detection, and the sample solubility in water was calculated.

[3] = Water solubility test (Comparative Example 4); format: physicochemical; details: 25° C.
Description: The ABT-199 dihydrochloride Form 1 prepared by the invention and the known ABT-199 hydrochloride Form II prepared according to the Preparation Example 2 were tested for water solubility. In specific, 10 mg sample was placed in a 20 mL glass bottle, and added with 10 mL deionized water at 25° C. to form a suspension, which was stirred for 24 hours at 25° C., filtered, and detected by HPLC, and the solubility of the sample in water was calculated.

[4] = cited from earlier work
[5] = Slurry competition experiment for crystalline form stability (Comparative Example 3); format: physicochemical; details: for crystalline form in slurry competition experiment: water-saturated ethyl acetate, 3 days, room temperature or 40° C.
Description: The ABT-199 monohydrochloride Form C prepared by the invention and the known ABT-199 hydrochloride Form II prepared by Preparation Example 2 were used for the competition experiment to test the crystalline form stability. In specific, 20 mg ABT-199 Form II and 20 mg ABT-199 monohydrochloride Form C samples were added to the same water-saturated ethyl acetate to form slurries, which were stirred for 3 days at room temperature or at 40° C., then the samples were analyzed by XRPD to investigate their crystalline form stability.

[6] = Crystalline stability at 130° C. for 1 day by XRPD (Comparative Example 2); format: physicochemical; details: for crystalline form after being stored at 130° C. for 1 day: XRPD
Description: The ABT-199 monohydrochloride Form B prepared by the present invention was compared with the known ABT-199 hydrochloride Form II prepared according to the Preparation Example 2. In specific, 30 mg samples were placed at 130° C. for 1 day, and XRPD was carried out to investigate the crystalline stability.

[7] = slurry of Form II and Form C in water-saturated ethyl acetate, XRPD

SMILES: CC1(C)CCC(CN2CCN(c3ccc(C(=O)NS(=O)(=O)c4ccc(NCC5CCOCC5)c([N+](=O)[O-])c4)c(Oc4cnc5[nH]ccc5c4)c3)CC2)=C(c2ccc(Cl)cc2)C1 [ABT-199 monohydrochloride Form A]
- appearance, XRPD pattern and melting point after storage ([1]; listed as Form A): unchanged
- solubility at 24 h ([2]; thermodynamic from solid, deionized water, 25° C., 24 hours, HPLC): ~40 µg/mL
- solubility in water compared with known ABT-199 hydrochloride Form II ([2]; water, 25° C.): higher solubility

SMILES: CC1(C)CCC(CN2CCN(c3ccc(C(=O)NS(=O)(=O)c4ccc(NCC5CCOCC5)c([N+](=O)[O-])c4)c(Oc4cnc5[nH]ccc5c4)c3)CC2)=C(c2ccc(Cl)cc2)C1 [ABT-199 dihydrochloride Form 1]
- appearance, XRPD pattern and melting point after storage ([1]; listed as Form 1): remains unchanged
- solubility at 24 h ([3]; thermodynamic from solid, deionized water, stirred 24 hours, HPLC): ~50 µg/mL
- solubility in water compared with known ABT-199 hydrochloride Form II [3]: higher solubility
- solubility in water compared with known ABT-199 hydrochloride Form II ([3]; listed as Form 1): higher

SMILES: CC1(C)CCC(CN2CCN(c3ccc(C(=O)NS(=O)(=O)c4ccc(NCC5CCOCC5)c([N+](=O)[O-])c4)c(Oc4cnc5[nH]ccc5c4)c3)CC2)=C(c2ccc(Cl)cc2)C1 [ABT-199 hydrochloride Form I]
- stability when exposed to air [4]: easily converted to ABT-199 hydrochloride Form II

SMILES: CC1(C)CCC(CN2CCN(c3ccc(C(=O)NS(=O)(=O)c4ccc(NCC5CCOCC5)c([N+](=O)[O-])c4)c(Oc4cnc5[nH]ccc5c4)c3)CC2)=C(c2ccc(Cl)cc2)C1.Cl [ABT-199 hydrochloride Form II, reference compound]
- crystalline form after stirring at 40° C. for 3 days [5, 7]: Convered to Form C
- crystalline form in slurry competition experiment [5]: changed to Form C
- crystalline form in slurry competition experiment ([5]; listed as ABT-199 monohydrochloride Form II): converted to Form C
- crystalline form after being stored at 130° C. for 1 day ([6]; 130° C., 1 day, listed as ABT-199 monohydrochloride Form II): changes; also recorded: Phase transition occurred
- stability at high temperature (in words) ([6]; high temperature): poor stability at high temperature
- solubility ([2]; deionized water, 25° C., 24 hours, HPLC): About 20 μg/mL
- solubility in water (in words) ([2]; water): low solubility in water
- solubility ([3]; deionized water, stirred 24 hours, HPLC): About 20 μg/mL

SMILES: CC1(C)CCC(CN2CCN(c3ccc(C(=O)NS(=O)(=O)c4ccc(NCC5CCOCC5)c([N+](=O)[O-])c4)c(Oc4cnc5[nH]ccc5c4)c3)CC2)=C(c2ccc(Cl)cc2)C1 [ABT-199 monohydrochloride Form C]
- appearance, XRPD pattern and melting point after storage ([1]; listed as Form C): remains unchanged
- crystalline form after stirring at 40° C. for 3 days [5, 7]: Form C
- crystalline form after stirring at room temperature for 3 days ([5]; slurry of Form II and Form C in water-saturated ethyl acetate, room temperature, XRPD): Form C
- crystalline form in slurry competition experiment [5]: remains unchanged

SMILES: CC1(C)CCC(CN2CCN(c3ccc(C(=O)NS(=O)(=O)c4ccc(NCC5CCOCC5)c([N+](=O)[O-])c4)c(Oc4cnc5[nH]ccc5c4)c3)CC2)=C(c2ccc(Cl)cc2)C1 [ABT-199 monohydrochloride Form B]
- appearance, XRPD pattern and melting point after storage ([1]; listed as Form B): remains unchanged
- high-temperature stability compared with known ABT-199 hydrochloride Form II ([6]; 130° C., 1 day): better high-temperature-stability
- crystalline form after being stored at 130° C. for 1 day ([6]; 130° C., 1 day): Form B
- crystalline form after being stored at 130° C. for 1 day ([6]; 130° C., 1 day, listed as Form B): does not change
